Data from patent US6699834B1, “Method for treating cancer” (University of Maryland Biotechnology Institute, priority 1997, dated 2004).

Tests used:
[1] = system: hematopoietic progenitor cells; experiment: Hematopoietic progenitor clonogenic assays (CFU-GEMM, BFU-e, CFU-GM); type: cell-based, human; conditions: relative increase of hematopoietic colony cell number; hCG preparations 200 IU/ml, subunits and peptides 100 μg/ml
Method: The effect of hCG preparations and peptides was assayed on hematopoietic progenitor cells in vitro: Hematopoietic progenitor cells (2×10^5 cell/ml) were isolated from normal bone marrow and cord blood and seeded in methylcellulose. […] The hCG preparations were administered at 200 IU/ml and the β- and α-subunits and peptides were administered at 100 μg/ml. The native commercial preparation of hCG (APL™, Wyeth Ayerst) was pre-tested for anti-HIV and anti-KS activities. Aggregates containing more than 50 cells after 10 days of culture were counted as colonies.

[2] = system: KS Y-1 and KS-SLK cells; experiment: Kaposi's Sarcoma clonogenic assay in cultured cells; type: cell-based, human; conditions: inhibition of Kaposi's Sarcoma cell growth in vitro in cultured cells
Method: Briefly, the KS Y-1 cells were obtained from mononuclear cells isolated from pleural effusion of an AIDS patient with KS in the lungs. After the depletion of T lymphocytes, monocytes/macrophages and fibroblasts using monoclonal antibodies against CD2, CD3, CD4, CD8, CD10 and CD14 membrane antigens and baby rabbit complement, the cells were cultured in the absence of exogenous growth factors to select for transformed cells. […] Clonogenic assays were performed by seeding the KS Y-1 or KS-SLK cells in methylcellulose (0.8%, v/v), incubating the cells for 10 days in the presence or absence of the hCC, β-hCG or β-hCG peptide preparations and then counting the number of well-formed colonies of triplicate wells formed after seeding with 5×10^4 cells.
To assay for activity against Kaposi's sarcoma cell growth in vitro, the clonogenic assay described herein was used with the KS Y-1 and KS-SLK cultured Kaposi's Sarcoma cell lines,.

[3] = system: HIV-1; conditions: for HIV in vitro Inhibition: inhibition of HIV-1 replication in vitro (HIV-1 strains and HIV-1 primary isolates)
Text: To prepare HIV infected cells for the in vitro assay of hCG preparations and β-hCG peptides and derivatives, primary PBMCs, macrophages, and CD4^+ T cells isolated from peripheral blood and the H9 human T cell line, were acutely or chronically infected with 8 different HIV-1 strains: 4 cell line adapted viruses, namely the macrophage tropic Ba-L strain (Gartner et al., 1986, Science 233:215-219) and the CD4^+ T cell tropic MN, RF, and IIIB strains (10^5 TCID50/ml) (Popovic et al., 1984, Science […]; Gallo et al.; 1984, Science 224:500-503); 2 isolates, Ju1083 and G3, from Nigerian AIDS patients passed once in a CD4^+ T cell line (Sub-T1); and 2 primary (“clinical”) isolates from AIDS patients from Trinidad which were never passed in any cell line and were used at a titer of 7.5×10^4TCID50/ml. In all experiments; HIV1 (10^5 TCID50/ml) was added to the cells(10^6 cells/ml) for a 2 hour incubation after which the virus infected cells were washed with 10 ml phosphate buffered saline (PBS) three times to eliminate extra cellular virus. The test inhibitor, i.e. the hCG or β-hCG peptide preparation was then added and the cells were incubated with the test inhibiter for 9 to 10 days with serial sampling. Cultures were assayed for p24 antigen on days 3 to 10.
Peptides of the α- and β-subunits (0.05 to 50 nmoles/ml), native α chain preparation, and various crude preparations of the native hCG heterodimer (0.01 to 1,000 IU) and the native β-hCG subunit (100 to 1,000 μg) were tested for effects on HIV-1 replication in acutely infected cells-by measuring change in viral antigen levels in response to the above noted preparations (FIGS. 4A-D and Table 3).
The fractions were then tested for anti-HIV, anti-KS and pro-hematopoietic activities in vitro. To assay for inhibition of HIV-1 replication in vitro, the HIV-1 […] viral strain was used to infect PBMCs and PM-1 cells (derived from the HUT-78 T-cell lymphoma cell line) at 10^3 TCID50/ml as described in detail herein.

Molecule | Pro-hematopoiesis in vitro Enhancement [1] | KS in vitro [2] | inhibition of HIV-1 infection/replication in vitro (in words) [3] | HIV in vitro Inhibition [3]
20. 110-145: β-hCG amino acids 110-145 (CDDPRFQDSSSSKAPPPSLPSPSRLPGPSDTPILPQ; UniProt P0DN86 130-165, looked up, fragment) | − (“−” represents less than 10% effect) | − (“−” represents less than 10% effect) |  | 
22. 7-40: β-hCG amino acids 7-40 (SEQ ID NO:33) (PRCRPINATLAVEKEGCPVCITVNTTICAGYCPT) | − (“−” represents less than 10% effect) | + (“+” represents greater than 15% effect) | inhibited HIV-1 replication | + (“+” represents greater than 15% effect)
39. 57-76: α-hCG amino acids 57-76 (STCCVAKSYNRVTVMGGFKV; UniProt P01215 81-100, looked up, fragment) |  | − (“−” represents less than 10% effect) |  | − (“−” represents less than 10% effect)
28. 113-132: β-hCG amino acids 113-132 (PRFQDSSSSKAPPPSLPSPS; UniProt P0DN86 133-152, looked up, fragment) | − (“−” represents less than 10% effect) | − (“−” represents less than 10% effect) |  | 
37. 26-45: α-hCG amino acids 26-45 (LQCMGCCFSRAYPTPLRSKK; UniProt P01215 50-69, looked up, fragment) | − (“−” represents less than 10% effect) | − (“−” represents less than 10% effect) |  | − (“−” represents less than 10% effect)
25. 123-145: β-hCG amino acids 123-145 |  | − (“−” represents less than 10% effect) |  | − (“−” represents less than 10% effect)
18. 91-112: β-hCG amino acids 91-112 (ALCRRSTTDCGGPKDHPLTCDD; UniProt P0DN86 111-132, looked up, fragment) | − (“−” represents less than 10% effect) | − (“−” represents less than 10% effect) |  | 
31. 51-59: β-hCG amino acids 51-59 (ALPQVVCNY; UniProt P0DN86 71-79, looked up, fragment) | − (“−” represents less than 10% effect) | − (“−” represents less than 10% effect) |  | − (“−” represents less than 10% effect)
36. 16-30: α-hCG amino acids 16-30 (PFFSQPGAPILQCMG; UniProt P01215 40-54, looked up, fragment) | − (“−” represents less than 10% effect) | − (“−” represents less than 10% effect) |  | − (“−” represents less than 10% effect)
29. 128-145: β-hCG amino acids 128-145 (LPSPSRLPGPSDTPILPQ; UniProt P0DN86 148-165, looked up, fragment) | −V (“−” represents less than 10% effect) | − (“−” represents less than 10% effect) |  | − (“−” represents less than 10% effect)
19. 93-100: β-hCG amino acids 93-100 (CRRSTTDC; UniProt P0DN86 113-120, looked up, fragment) |  | − (“−” represents less than 10% effect) |  | − (“−” represents less than 10% effect)
14. 1-20: β-hCG amino acids 1-20 (SKEPLRPRCRPINATLAVEK; UniProt P0DN86 21-40, looked up, fragment) |  | − (“−” represents less than 10% effect) |  | − (“−” represents less than 10% effect)
27. 100-110: β-hCG amino acids 100-110 (CGGPKDHPLTC; UniProt P0DN86 120-130, looked up, fragment) |  | − (“−” represents less than 10% effect) |  | − (“−” represents less than 10% effect)
23. 57-93: β-hCG amino acids 57-93 (CNYRDVRFESIRLPGCPRGVNPVVSYAVALSCQCALC; UniProt P0DN86 77-113, looked up, fragment) | − (“−” represents less than 10% effect) | − (“−” represents less than 10% effect) |  | − (“−” represents less than 10% effect)
21. 74-95: β-hCG amino acids 74-95 (RGVNPVVSYAVALSCQCALCRR; UniProt P0DN86 94-115, looked up, fragment) | − (“−” represents less than 10% effect) | − (“−” represents less than 10% effect) |  | − (“−” represents less than 10% effect)
16. 31-50: β-hCG amino acids 31-50 (TTICAGYCPTMTRVLQGVLP; UniProt P0DN86 51-70, looked up, fragment) | − (“−” represents less than 10% effect) | − (“−” represents less than 10% effect) |  | − (“−” represents less than 10% effect)
34. 88-92: α-hCG amino acids 88-92 (YYHKS; UniProt P01215 112-116, looked up, fragment) |  | − (“−” represents less than 10% effect) | little or no effect | − (“−” represents less than 10% effect)
Oc1ccccc1 [phenol, reference compound] |  |  | no effect on HIV-1 replication | 
26. 134-144: β-hCG amino acids 134-144 | − (“−” represents less than 10% effect) | − (“−” represents less than 10% effect) |  | − (“−” represents less than 10% effect)
38. 41-61: α-hCG amino acids 41-61 (LRSKKTMLVQKNVTSESTCCV; UniProt P01215 65-85, looked up, fragment) |  | − (“−” represents less than 10% effect) |  | − (“−” represents less than 10% effect)
40. 72-92: α-hCG amino acids 72-92 (GGFKVENHTACHCSTCYYHKS; UniProt P01215 96-116, looked up, fragment) | − (“−” represents less than 10% effect) | − (“−” represents less than 10% effect) |  | − (“−” represents less than 10% effect)
24. 34-39: β-hCG amino acids 34-39 (CAGYCP; UniProt P0DN86 54-59, looked up, fragment) |  | − (“−” represents less than 10% effect) |  | − (“−” represents less than 10% effect)
17. 46-65: β-hCG amino acids 46-65 (SEQ ID NO:34) (QGVLPALPQVVCNYRDVRFE) |  | + (“+” represents greater than 15% effect) | inhibited HIV-1 replication | + (“+” represents greater than 15% effect)
